# From ChEMBL document CHEMBL1201862, “PubChem BioAssay data set” (2004)
#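 Method: 48-hour compound exposure of cells in 96-well plates, five concentrations, linear interpolation of endpoints. Here, GI50 denotes the concentration required for 50% inhibition of growth.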 The source made the active and inactive calls. Rule as the data show it: active = GI50 up to about 1.1 µM and inactive = higher.
# How the values were obtained:
# Test in all cases: NCI-60 cell line screen, 48 h
# ACHN = system: ACHN
# NCI-H23 = system: NCI-H23
# HOP-92 = system: HOP-92
# M14 = system: M14
# MOLT-4 = system: MOLT-4
# NCI-H460 = system: NCI-H460
# BT-549 = system: BT-549
# NCI-H226 = system: NCI-H226
# T47D = system: T47D
# SF-539 = system: SF-539
# SR = system: SR
# IGROV-1 = system: IGROV-1
# UACC-62 = system: UACC-62
# SF-295 = system: SF-295
# HOP-62 = system: HOP-62
# A498 = system: A498
# COLO 205 = system: COLO 205
# 786-0 = system: 786-0
# CCRF-CEM = system: CCRF-CEM
# OVCAR-8 = system: OVCAR-8
# HCT-116 = system: HCT-116
# Malme-3M = system: Malme-3M
# RPMI-8226 = system: RPMI-8226
# SK-OV-3 = system: SK-OV-3
# SK-MEL-28 = system: SK-MEL-28
# MDA-N = system: MDA-N
# SNB-19 = system: SNB-19
# KM12 = system: KM12
# SK-MEL-5 = system: SK-MEL-5
# OVCAR-4 = system: OVCAR-4
# NCI/ADR-RES = system: NCI/ADR-RES
# RXF 393 = system: RXF 393
# HCC 2998 = system: HCC 2998
# PC-3 = system: PC-3
# MDA-MB-231 = system: MDA-MB-231
# MCF7 = system: MCF7
# HT-29 = system: HT-29
# MDA-MB-435 = system: MDA-MB-435
# HL-60 = system: HL-60
# EKVX = system: EKVX
# OVCAR-3 = system: OVCAR-3
# LOX IMVI = system: LOX IMVI
# SK-MEL-2 = system: SK-MEL-2
# U-251 = system: U-251
# HCT-15 = system: HCT-15
# NCI-H522 = system: NCI-H522
# SW-620 = system: SW-620
# UO-31 = system: UO-31
# A549 = system: A549
# CAKI-1 = system: CAKI-1
# DU-145 = system: DU-145
# TK-10 = system: TK-10
# SN12C = system: SN12C
# K562 = system: K562
# Hs-578T = system: Hs-578T
# SNB-75 = system: SNB-75
# OVCAR-5 = system: OVCAR-5
# UACC-257 = system: UACC-257
# SF-268 = system: SF-268
smiles,measurement,setting,value
CCOP(C)(=O)/C(Cc1ccc(OC)c(OC)c1)=N\O (stereo not drawn),GI50,ACHN,> 100 µM (inactive)
same,GI50,NCI-H23,> 100 µM (inactive)
same,GI50,HOP-92,> 100 µM (inactive)
same,GI50,M14,> 100 µM (inactive)
same,GI50,MOLT-4,> 100 µM (inactive)
same,GI50,NCI-H460,> 100 µM (inactive)
same,GI50,BT-549,> 100 µM (inactive)
same,GI50,NCI-H226,> 100 µM (inactive)
same,GI50,T47D,> 100 µM (inactive)
same,GI50,SF-539,> 100 µM (inactive)
same,GI50,SR,> 100 µM (inactive)
same,GI50,IGROV-1,> 100 µM (inactive)
same,GI50,UACC-62,> 100 µM (inactive)
same,GI50,SF-295,> 100 µM (inactive)
same,GI50,HOP-62,> 100 µM (inactive)
same,GI50,A498,> 100 µM (inactive)
same,GI50,COLO 205,> 100 µM (inactive)
same,GI50,786-0,> 100 µM (inactive)
same,GI50,CCRF-CEM,> 100 µM (inactive)
same,GI50,OVCAR-8,> 100 µM (inactive)
same,GI50,HCT-116,> 100 µM (inactive)
same,GI50,Malme-3M,> 100 µM (inactive)
same,GI50,RPMI-8226,> 100 µM (inactive)
same,GI50,SK-OV-3,> 100 µM (inactive)
same,GI50,SK-MEL-28,> 100 µM (inactive)
same,GI50,MDA-N,> 100 µM (inactive)
same,GI50,SNB-19,> 100 µM (inactive)
same,GI50,KM12,> 100 µM (inactive)
same,GI50,SK-MEL-5,> 100 µM (inactive)
same,GI50,OVCAR-4,> 100 µM (inactive)
same,GI50,NCI/ADR-RES,> 100 µM (inactive)
same,GI50,RXF 393,> 100 µM (inactive)
same,GI50,HCC 2998,> 100 µM (inactive)
same,GI50,PC-3,> 100 µM (inactive)
same,GI50,MDA-MB-231,> 100 µM (inactive)
same,GI50,MCF7,> 100 µM (inactive)
same,GI50,HT-29,> 100 µM (inactive)
same,GI50,MDA-MB-435,> 100 µM (inactive)
same,GI50,HL-60,> 100 µM (inactive)
same,GI50,EKVX,> 100 µM (inactive)
same,GI50,OVCAR-3,> 100 µM (inactive)
same,GI50,LOX IMVI,> 100 µM (inactive)
same,GI50,SK-MEL-2,> 100 µM (inactive)
same,GI50,U-251,> 100 µM (inactive)
same,GI50,HCT-15,> 100 µM
same,GI50,NCI-H522,> 100 µM (inactive)
same,GI50,SW-620,> 100 µM (inactive)
same,GI50,UO-31,> 100 µM (inactive)
same,GI50,A549,> 100 µM (inactive)
same,GI50,CAKI-1,> 100 µM (inactive)
same,GI50,DU-145,> 100 µM (inactive)
same,GI50,TK-10,> 100 µM (inactive)
same,GI50,SN12C,> 100 µM (inactive)
same,GI50,K562,> 100 µM (inactive)
same,GI50,Hs-578T,> 100 µM (inactive)
same,GI50,SNB-75,> 100 µM (inactive)
same,GI50,OVCAR-5,> 100 µM (inactive)
CCOC(=O)C1=NNC(C(=O)c2ccccc2)C1c1ccccc1 (stereo not drawn),GI50,ACHN,1.85 µM (inactive)
same,GI50,NCI-H23,2.42 µM (inactive)
same,GI50,HOP-92,2.07 µM (inactive)
same,GI50,M14,1.9 µM (inactive)
same,GI50,MOLT-4,3.54 µM (inactive)
same,GI50,BT-549,2.08 µM (inactive)
same,GI50,NCI-H226,18.1 µM (inactive)
same,GI50,T47D,4.24 µM (inactive)
same,GI50,SF-539,2.17 µM (inactive)
same,GI50,SR,1.81 µM (inactive)
same,GI50,IGROV-1,4.6 µM (inactive)
same,GI50,UACC-62,3.18 µM (inactive)
same,GI50,SF-295,16.9 µM (inactive)
same,GI50,HOP-62,12.2 µM (inactive)
same,GI50,A498,25.1 µM (inactive)
same,GI50,COLO 205,2.05 µM (inactive)
same,GI50,786-0,2.11 µM (inactive)
same,GI50,CCRF-CEM,1.64 µM (inactive)
same,GI50,OVCAR-8,5.51 µM (inactive)
same,GI50,HCT-116,2.52 µM (inactive)
same,GI50,Malme-3M,2.19 µM (inactive)
same,GI50,RPMI-8226,3.85 µM (inactive)
same,GI50,SK-OV-3,18.8 µM (inactive)
same,GI50,SK-MEL-28,1.91 µM (inactive)
same,GI50,MDA-N,1.85 µM (inactive)
same,GI50,SNB-19,14.4 µM (inactive)
same,GI50,KM12,6.87 µM (inactive)
same,GI50,SK-MEL-5,1.8 µM (inactive)
same,GI50,OVCAR-4,7.4 µM (inactive)
same,GI50,NCI/ADR-RES,4.35 µM (inactive)
same,GI50,RXF 393,1.7 µM (inactive)
same,GI50,HCC 2998,1.96 µM (inactive)
same,GI50,PC-3,10.4 µM (inactive)
same,GI50,MDA-MB-231,3.94 µM (inactive)
same,GI50,MCF7,1.91 µM (inactive)
same,GI50,HT-29,2.28 µM (inactive)
same,GI50,MDA-MB-435,1.91 µM (inactive)
same,GI50,HL-60,0.644 µM (active)
same,GI50,EKVX,8.95 µM (inactive)
same,GI50,OVCAR-3,3.42 µM (inactive)
same,GI50,LOX IMVI,2.32 µM (inactive)
same,GI50,SK-MEL-2,16.2 µM (inactive)
same,GI50,U-251,3.39 µM (inactive)
same,GI50,HCT-15,2.15 µM
same,GI50,NCI-H522,1.15 µM (inactive)
same,GI50,SW-620,1.75 µM (inactive)
same,GI50,UO-31,2.01 µM (inactive)
same,GI50,A549,19.1 µM (inactive)
same,GI50,CAKI-1,1.83 µM (inactive)
same,GI50,DU-145,13.2 µM (inactive)
same,GI50,TK-10,2.25 µM (inactive)
same,GI50,SN12C,2.08 µM (inactive)
same,GI50,K562,1.47 µM (inactive)
same,GI50,UACC-257,2.61 µM (inactive)
same,GI50,Hs-578T,4.12 µM (inactive)
same,GI50,SF-268,5 µM (inactive)
same,GI50,SNB-75,5.7 µM (inactive)
same,GI50,OVCAR-5,6.47 µM (inactive)
C=C1C(=O)O[C@@H]2/C=C(/C)[C@@H](OC(C)=O)C[C@@H](O)/C(C)=C\[C@@H](OC(=O)[C@]3(C)O[C@@H]3C)[C@@H]12,GI50,ACHN,11.8 µM (inactive)
same,GI50,NCI-H23,17.3 µM (inactive)
same,GI50,HOP-92,12.7 µM (inactive)
same,GI50,M14,12.5 µM (inactive)
same,GI50,MOLT-4,3.91 µM (inactive)
same,GI50,NCI-H460,26.3 µM (inactive)
same,GI50,BT-549,5.83 µM (inactive)
same,GI50,NCI-H226,40.4 µM (inactive)
same,GI50,T47D,11.1 µM (inactive)
same,GI50,SF-539,21.2 µM (inactive)
same,GI50,SR,4.6 µM (inactive)
same,GI50,IGROV-1,16.2 µM (inactive)
same,GI50,UACC-62,16.1 µM (inactive)
same,GI50,SF-295,50.9 µM (inactive)
same,GI50,HOP-62,40.6 µM (inactive)
same,GI50,A498,18.1 µM (inactive)
same,GI50,COLO 205,6.89 µM (inactive)
same,GI50,786-0,4.57 µM (inactive)
same,GI50,CCRF-CEM,2.38 µM (inactive)
same,GI50,OVCAR-8,13.1 µM (inactive)
same,GI50,HCT-116,3.89 µM (inactive)
same,GI50,Malme-3M,2.86 µM (inactive)
same,GI50,RPMI-8226,5.78 µM (inactive)
same,GI50,SK-OV-3,45.8 µM (inactive)
same,GI50,SK-MEL-28,10.9 µM (inactive)
same,GI50,MDA-N,15.7 µM (inactive)
same,GI50,SNB-19,47.4 µM (inactive)
same,GI50,KM12,17.5 µM (inactive)
same,GI50,SK-MEL-5,11.4 µM (inactive)
same,GI50,OVCAR-4,21.9 µM (inactive)
same,GI50,NCI/ADR-RES,46.6 µM (inactive)
same,GI50,RXF 393,15.5 µM (inactive)
same,GI50,HCC 2998,18.2 µM (inactive)
same,GI50,PC-3,17.6 µM (inactive)
same,GI50,MDA-MB-231,16.3 µM (inactive)
same,GI50,MCF7,5.79 µM (inactive)
same,GI50,HT-29,15.8 µM (inactive)
same,GI50,MDA-MB-435,15.3 µM (inactive)
same,GI50,HL-60,2.39 µM (inactive)
same,GI50,EKVX,11 µM (inactive)
same,GI50,OVCAR-3,11.6 µM (inactive)
same,GI50,LOX IMVI,7.26 µM (inactive)
same,GI50,SK-MEL-2,17.2 µM (inactive)
same,GI50,U-251,17.5 µM (inactive)
same,GI50,HCT-15,12.9 µM
same,GI50,NCI-H522,1.28 µM (inactive)
same,GI50,SW-620,5.98 µM (inactive)
same,GI50,A549,31.2 µM (inactive)
same,GI50,CAKI-1,3.48 µM (inactive)
same,GI50,DU-145,14.6 µM (inactive)
same,GI50,TK-10,15.6 µM (inactive)
same,GI50,SN12C,12.3 µM (inactive)
same,GI50,K562,3.34 µM (inactive)
same,GI50,UACC-257,15.7 µM (inactive)
same,GI50,Hs-578T,42.6 µM (inactive)
same,GI50,SF-268,18.9 µM (inactive)
same,GI50,SNB-75,19.5 µM (inactive)
same,GI50,OVCAR-5,18.6 µM (inactive)
